The values that follow come from ChEMBL document CHEMBL1165872, “Synthesis and molecular docking studies of 1-phenyl-4-glycosyl-dihydropyridines as potent antileishmanial agents” (Eur J Med Chem, 2010).

Series [1] in a line: Cytotoxicity against mouse J774A1 cells after 72 hrs by MTT assay. In kind it is cell-based, J774.A1. (Formazan colour is commonly taken as a measure of viable cells.)
Series [2] deals with Leishmania donovani. As to the kind of experiment: Antileishmanial activity against Leishmania donovani MHOM/IN/Dd8 promastigote carrying firefly luciferase gene assessed as relative luminescence unit at 40 ug/mL after 72 hrs. In kind it is functional. To be noted: MHOM/IN/Dd8, 72 h.
The subject of series [3] is Leishmania donovani. As to the kind of experiment: Antileishmanial activity against Leishmania donovani MHOM/IN/Dd8 promastigote carrying firefly luciferase gene assessed as relative luminescence unit after 72 hrs. Format: functional, organism-based.
Series [4] deals with Leishmania donovani. As to the kind of experiment: Antileishmanial activity against Leishmania donovani MHOM/IN/Dd8 amastigote carrying firefly luciferase gene infected in mouse J774A1 cells assessed as relative luminescence unit after 72 hrs. In kind it is functional, organism-based, J774.A1.
Series [5] can be described thus: Selectivity index, ratio of CC50 for mouse J774A1 cells to IC50 for Leishmania donovani MHOM/IN/Dd8 amastigote. Format: functional, J774.A1.
Series [6] concerns Leishmania donovani. As to the kind of experiment: Antileishmanial activity against Leishmania donovani MHOM/IN/Dd8 amastigote infected in hamster assessed as inhibition of amastigote multiplication at 50 mg/kg, ip for 5 days. Format: functional. To be noted: 120 h, route intraperitoneal.
Series [7] concerns Leishmania donovani. As to the kind of experiment: Antileishmanial activity against Leishmania donovani MHOM/IN/Dd8 amastigote infected in hamster assessed as inhibition of amastigote multiplication at 30 mg/kg, po for 5 days. To be noted: MHOM/IN/Dd8, 120 h. Format: functional.
The test system of series [8] is Leishmania donovani. As to the kind of experiment: Antileishmanial activity against Leishmania donovani MHOM/IN/Dd8 amastigote infected in hamster assessed as inhibition of amastigote multiplication at 40 mg/kg, ip for 5 days. Format: functional. Particulars: 120 h, route intraperitoneal; call rule not given here.
The mark [9] stands for this setting: Leishmania donovani, MHOM/IN/Dd8, 72 h, read-out: IC50.
Where [10] appears, read: Leishmania donovani, MHOM/IN/Dd8, J774.A1, 72 h, read-out: IC50.

The structures appear in SMILES notation. In brackets after ≈: the same amount, converted by molar mass.

As a reminder, the CC50 is the concentration at which the toxic effect on the cells reaches its halfway point. As a reminder, the inhibition is the relative decrease from the control value, in per cent. Usually IC50 stands for the concentration needed to halve the response being measured. In general, inhibition in vivo refers to the drop in the measured response relative to a control, in per cent. The compound `COC(=O)C1=C(C)N(c2ccc(Br)cc2)C(C)=C(C(=O)OC)C1[C@@H]1O[C@H]2OC(C)(C)O[C@H]2[C@@H]1OC` showed a cytotoxic concentration (CC50) at 72 h in series [1] of 48.5 µg/mL (≈ 87.8 µM). Also, in series [2], the inhibition at 40 µg/mL was more than 80%. Also, the figures for the IC50 in series [3] (setting [9]) and in series [4] (setting [10]) were 0.88 µg/mL (≈ 1.59 µM) and 3.57 µg/mL (≈ 6.46 µM), respectively. Further, the “Ratio CC50/IC50” value in series [5] was found to be 13.58. The inhibition in vivo at 50 mg/kg in series [6] amounted to 43.9%.
As for `CCOC(=O)C1=C(C)N(c2ccccc2OC)C(C)=C(C(=O)OCC)C1[C@@H]1O[C@H]2OC(C)(C)O[C@H]2[C@@H]1OC`, the CC50 at 72 h in series [1] was 49.7 µg/mL (≈ 93.5 µM). In addition, in series [2], the inhibition at 40 µg/mL is more than 80%. The results for the IC50 in series [3] (setting [9]) and in series [4] (setting [10]) were 0.22 µg/mL (≈ 0.414 µM) and 6.18 µg/mL (≈ 11.6 µM), respectively. For the same compound, in series [5], the “Ratio CC50/IC50” value worked out at 8.04. Also, the inhibition in vivo at 50 mg/kg in series [6] was 49.7%.
Regarding `COC(=O)C1=C(C)N(c2ccc(OC)cc2)C(C)=C(C(=O)OC)C1[C@@H]1O[C@H]2OC(C)(C)O[C@H]2[C@@H]2OC(C)(C)O[C@@H]21`, the inhibition at 40 µg/mL in series [2] was more than 80%. Moreover, the IC50 entry in series [3] and in series [4] (j774.a1) was “Not Active” each time.
Regarding `COC(=O)C1=C(C)N(c2ccc(Cl)cc2)C(C)=C(C(=O)OC)C1[C@@H]1O[C@H]2OC(C)(C)O[C@H]2[C@@H]1O`, in series [1], the CC50 at 72 h was 35.5 µg/mL (≈ 71.9 µM). For the same compound, in series [2], the inhibition at 40 µg/mL is more than 80%. The IC50 turned out to be 0.86 µg/mL (≈ 1.74 µM) in series [3] (setting [9]) and 3.85 µg/mL (≈ 7.79 µM) in series [4] (setting [10]). Also, in series [5], the “Ratio CC50/IC50” value stood at 9.21. For the same compound, in series [6], the inhibition in vivo at 50 mg/kg is 44.9%.
With `COC(=O)C1=C(C)N(c2ccc(N)cc2)C(C)=C(C(=O)OC)C1[C@@H]1O[C@H]2OC(C)(C)O[C@H]2[C@@H]2OC(C)(C)O[C@@H]21`, the inhibition at 40 µg/mL in series [2] is more than 80%. Besides, the IC50 result in series [3] and in series [4] (j774.a1) was “Not Active” in each case.
As for `COC(=O)C1=C(C)N(c2ccc(OC)cc2)C(C)=C(C(=O)OC)C1[C@@H]1O[C@H]2OC(C)(C)O[C@H]2[C@@H]1OC`, the CC50 at 72 h in series [1] was 18.6 µg/mL (≈ 37 µM). The inhibition at 40 µg/mL in series [2] was more than 80%. The IC50 in series [3] (setting [9]) was found to be 12.4 µg/mL (≈ 24.6 µM); in series [4] (setting [10]) it was 4.42 µg/mL (≈ 8.78 µM). Moreover, in series [5], the “Ratio CC50/IC50” value is 4.21.
The matching figures for `COC(=O)C1=C(C)N(c2ccc(Cl)cc2)C(C)=C(C(=O)OC)C1[C@@H]1O[C@H]2OC(C)(C)O[C@H]2[C@@H]1OCc1ccccc1`: 4.22 µg/mL (≈ 7.23 µM), more than 80%, 1.86 µg/mL (≈ 3.18 µM), 3.8 µg/mL (≈ 6.51 µM) and 1.109.
On to `COC(=O)C1=C(C)N(c2ccc(Cl)c(Cl)c2)C(C)=C(C(=O)OC)C1[C@@H]1O[C@H]2OC(C)(C)O[C@H]2[C@@H]1O`, for which the cytotoxic concentration (CC50) at 72 h in series [1] turned out to be 29.9 µg/mL (≈ 56.7 µM). Also, in series [2], the inhibition at 40 µg/mL is more than 80%. The IC50 came to 3.72 µg/mL (≈ 7.04 µM) in series [3] (setting [9]) and 10.1 µg/mL (≈ 19.2 µM) in series [4] (setting [10]). Also, the “Ratio CC50/IC50” value in series [5] was 2.96.
Take `CCCCCCCCCCCCCCCCOP(=O)([O-])OCC[N+](C)(C)C` [MILTEFOSINE]: it took 31.3 µg/mL (≈ 76.8 µM) to reach half-maximal cytotoxicity in series [1] (CC50 at 72 h). For the same compound, the IC50 in series [3] (setting [9]) was determined as 0.643 µg/mL (≈ 1.58 µM); in series [4] (setting [10]), 12.1 µg/mL (≈ 29.7 µM). The “Ratio CC50/IC50” value in series [5] is given as 2.58. Besides, the inhibition in vivo at 30 mg/kg in series [7] amounted to 95%.
In turn, `COC(=O)C1=C(C)N(c2ccc(Cl)cc2)C(C)=C(C(=O)OC)C1[C@@H]1O[C@H]2OC(C)(C)O[C@H]2[C@@H]2OC(C)(C)O[C@@H]21` displayed a CC50 at 72 h in series [1] of 15.2 µg/mL (≈ 27 µM). Besides, in series [2], the inhibition at 40 µg/mL was more than 80%. For the same compound, the values for the half-maximal inhibitory concentration (IC50) in series [3] (setting [9]) and in series [4] (setting [10]) were 4.17 µg/mL (≈ 7.39 µM) and 14.3 µg/mL (≈ 25.4 µM), respectively. Besides, in series [5], the “Ratio CC50/IC50” value was determined as 1.06.
`N=C(N)c1ccc(OCCCCCOc2ccc(C(=N)N)cc2)cc1` [PENTAMIDINE]: the CC50 at 72 h in series [1] came out at 3.91 µg/mL (≈ 11.5 µM). The IC50 came out at 3.23 µg/mL (≈ 9.49 µM) in series [3] (setting [9]) and 3.59 µg/mL (≈ 10.5 µM) in series [4] (setting [10]). Further, in series [5], the “Ratio CC50/IC50” value worked out at 1.08. In addition, the inhibition in vivo at 40 mg/kg in series [8] turned out to be 92%.
The compound `COC(=O)C1=C(C)N(c2ccc(Cl)cc2)C(C)=C(C(=O)OC)C1[C@@H]1O[C@H]2OC(C)(C)O[C@H]2[C@@H]1OC` gave a CC50 at 72 h in series [1] of 82.4 µg/mL (≈ 162 µM). In addition, the inhibition at 40 µg/mL in series [2] was more than 80%. The IC50 is 1.94 µg/mL (≈ 3.82 µM) in series [3] (setting [9]) and 19.1 µg/mL (≈ 37.5 µM) in series [4] (setting [10]). Besides, the “Ratio CC50/IC50” value in series [5] is on record as 4.32.
As for `CCOC(=O)C1=C(C)N(c2ccc(C)cc2)C(C)=C(C(=O)OCC)C1[C@@H]1O[C@H]2OC(C)(C)O[C@H]2[C@@H]1OC`, the inhibition at 40 µg/mL in series [2] is more than 80%. In addition, the IC50 entry in series [3] and in series [4] (j774.a1) was “Not Active” each time.
Regarding `COC(=O)C1=C(C)N(c2ccc(C)cc2)C(C)=C(C(=O)OC)C1[C@@H]1O[C@H]2OC(C)(C)O[C@H]2[C@@H]1OC`, in series [1], the CC50 at 72 h stood at 33.1 µg/mL (≈ 67.8 µM). Moreover, the inhibition at 40 µg/mL in series [2] is more than 80%. Further, the half-inhibitory concentration (IC50) in series [3] (setting [9]) was 1.74 µg/mL (≈ 3.57 µM); in series [4] (setting [10]) it was 4.45 µg/mL (≈ 9.13 µM). In addition, the “Ratio CC50/IC50” value in series [5] came to 7.43. Besides, in series [6], the inhibition in vivo at 50 mg/kg was 58.8%.
For `COC(=O)C1=C(C)N(c2ccc(F)cc2)C(C)=C(C(=O)OC)C1[C@@H]1O[C@H]2OC(C)(C)O[C@H]2[C@@H]1OCc1ccccc1`, in series [2], the inhibition at 40 µg/mL is more than 80%. Also, the results for the IC50 in series [3] (setting [9]) and in series [4] (j774.a1) were 3.67 µg/mL (≈ 6.47 µM) and “Not Active”, respectively.
With `COC(=O)C1=C(C)N(c2ccc(C)cc2)C(C)=C(C(=O)OC)C1[C@@H]1O[C@H]2OC(C)(C)O[C@H]2[C@@H]1OCc1ccccc1`, the CC50 at 72 h in series [1] came out at 7.66 µg/mL (≈ 13.6 µM). Also, in series [2], the inhibition at 40 µg/mL is more than 80%. Moreover, the values for the IC50 in series [3] (setting [9]) and in series [4] (setting [10]) were 3.62 µg/mL (≈ 6.42 µM) and 4.89 µg/mL (≈ 8.68 µM), respectively.
Compound `CCOC(=O)C1=C(C)N(c2ccc(OC)cc2)C(C)=C(C(=O)OCC)C1[C@@H]1O[C@H]2OC(C)(C)O[C@H]2[C@@H]1OCc1ccccc1` gave a CC50 at 72 h in series [1] of 59.9 µg/mL (≈ 98.6 µM). The inhibition at 40 µg/mL in series [2] was more than 80%. Moreover, the values for the IC50 in series [3] (setting [9]) and in series [4] (setting [10]) were 1.65 µg/mL (≈ 2.72 µM) and 8.08 µg/mL (≈ 13.3 µM), respectively. The “Ratio CC50/IC50” value in series [5] came out at 7.42.
With `COC(=O)C1=C(C)N(c2ccc(OC)cc2)C(C)=C(C(=O)OC)C1[C@@H]1O[C@H]2OC(C)(C)O[C@H]2[C@@H]1OCc1ccccc1`, half-maximal cytotoxicity in series [1] (CC50 at 72 h) was put at 14.1 µg/mL (≈ 24.4 µM). For the same compound, in series [2], the inhibition at 40 µg/mL is more than 80%. The half-inhibitory concentration (IC50) in series [3] (setting [9]) stood at 1.94 µg/mL (≈ 3.35 µM); in series [4] (setting [10]), 0.75 µg/mL (≈ 1.29 µM). Also, the “Ratio CC50/IC50” value in series [5] is recorded as 18.93. For the same compound, in series [6], the inhibition in vivo at 50 mg/kg stood at 26.8%.
